What was measured:
Globodera pallida [1] = experiment: Reduction test of Globodera pallida egg density (pot test); format: in vivo; conditions: 30 days, three pots
Protocol: After 20 mg of compound (I) was dissolved in 1 mL of dimethylsulfoxide, 199 mL of a 0.1% polyoxyethylene sorbitan monolaurate aqueous solution was added thereto, to obtain a test reagent solution with a concentration of compound (I) of 100 ppm. Further, this was diluted 10-fold with distilled water, to prepare a 10 ppm test reagent solution.
Soil was collected from a field infected with Globodera pallida, and the egg density was investigated, as follows. The cysts were separated from 100 g of the dried soil by dry flotation-sieving method and crushed to release nematode eggs, and the number of eggs was counted under a stereomicroscope. This was taken as the initial density.
32 mL of the test reagent solution adjusted to 100 ppm or 10 ppm was added to 800 mL of the collected field soil, followed by stirring well. It was packed in a plastic pot (upper diameter: 10.5 cm, height: 22.5 cm), and placed in a greenhouse without any planting for 30 days. Each pot was watered with 26 mL of distilled water every 6 to 7 days.
After 30 days, the soil was spread on an aluminum bat and air-dried, and the cysts were separated from 100 g of the dry soil in the same manner as above, to count the number of remaining eggs (density after treatment). Three pots were installed per concentration for each compound, and the average density reduction rate was calculated from the initial density and the density after treatment.

Globodera pallida eggs = experiment: Hatching accelerating effect evaluation test for Globodera pallida (liquid immersion test); format: in vivo; conditions: 1 mL of 2 ppm test reagent solution added to 1 mL egg suspension; 16° C.; about 2 weeks; two replicates
Protocol: A predetermined amount of compound (I) was dissolved in an aqueous solution containing 0.05% (v/v) of polyoxyethylene sorbitan monolaurate (Tween20) to prepare a 100 ppm solution of compound (I).
The 100 ppm solution of compound (I) was further diluted with a 0.05% (v/v) Tween20 aqueous solution to prepare a test reagent solution with a concentration of compound (I) of 2 ppm.
The cysts of Globodera pallida increased in a greenhouse before the previous year were isolated from the soil, immersed in distilled water and kept at 16° C. for about 2 weeks were crushed with a scalpel and the eggs were taken out to obtain an egg suspension. After preparing a density of approximately 600 eggs per mL, Tween 20 was added to a concentration of 0.05% (v/v). 1 mL of this egg suspension was put into a 13.5 mL screw cap glass vial (inner diameter: 2.1 cm, height: 4.8 cm), and 1 mL each of a test reagent solution with a concentration of compound (I) of 2 ppm was added. It was covered and kept at 16° C.
About 2 weeks later, 1 mL was taken out, and the number of hatching larvae and the number of eggs were counted under a stereomicroscope. Two replicates were installed for each compound, and the average hatching rate was calculated.

Globodera pallida [2] = experiment: Reduction test of Globodera pallida egg density (field plot test); format: in vivo; conditions: for Gp density reduction rate: about 80 days, average of four plots
Protocol: With reference to Formulation Example 4, a 10% solution of compound No. 2 was prepared. This 10% solution was diluted with distilled water, to prepare test reagent solutions with concentrations of 300 ppm, 30 ppm, and 3 ppm.
Round plots (diameter:30 cm) were installed in a field infected with Globodera pallida, and the reducing effect of reagent solution treatment on the nematode egg density in soil was investigated. Each plot was prepared by burying a cylinder (30 cm in diameter and 25 cm in height) made of polyethylene sheet to a depth of 20 cm. Test plots were installed in the field and soil samples in each plot were collected for the initial density survey. Then, the test reagent solution of each concentration was sprayed at a ratio of 5 or 1 L per square meter and the soil in the plot was mixed with a shovel to a depth of 15 cm. As a result, treatments with four different doses of compound (1500, 300, 30 and 3 g per 10 a) were prepared.
About 80 days later, the soil in each plots was collected, and the nematode egg density in the soil was investigated, as follows. The cysts were separated from 100 g of dried soil by a sieving cyst flow method, crushed with a scalpel to extract eggs, suspended in distilled water to extract a certain amount, and the number of eggs was counted under a stereomicroscope.
Four plots were installed for each concentration, and the average density reduction rate was calculated from the initial density and final density.

Gp = conditions: relative to natural hatching factor; cited from earlier work

For `Cc1ccc(C2CC(=O)NC2(C)C)cc1` (stereo not drawn) [Compound 2, 5,5-dimethyl-4-(4-methylphenyl)-2-pyrrolidinone], the “Average density reduction rate at 10 ppm (%)” value (Globodera pallida [1]; 32 mL of 10 ppm test reagent solution in 800 mL field soil) was 95.4%, the “Average density reduction rate at 100 ppm (%)” value (Globodera pallida [1]; 32 mL of 100 ppm test reagent solution in 800 mL field soil) was 98.0% and the “Average hatching rate (%)” value (Globodera pallida eggs) was 94.3%. The “Gp density reduction rate” value (Globodera pallida [2]; dose 3 g/10 a) was 65.6%, the “Gp density reduction rate” value (Globodera pallida [2]; dose 300 g/10 a) was 94.4% and the “Gp density reduction rate” value (Globodera pallida [2]; dose 1500 g/10 a) was 98.4%. For the same compound, the “Reduction of Gp density in the soil” value (Globodera pallida [2]; dose of 30 g or more per 10a) was ≥ 80% and the “Gp density reduction rate” value (Globodera pallida [2]; dose printed as 'g/10 a' (third dose level)) was 88.8%.

For `CC1=NN(c2ccc([N+](=O)[O-])cc2)C(=O)C1[N+](=O)[O-]` (stereo not drawn) [picrolonic acid], the “Hatching activity, % of that of the natural hatching factor” value (“Hatching activity, %” for short) (Gp) is given as “about 30%”.

For `[Na+].[Na+].[Na+].[O]=[V]([O-])([O-])[O-]` [sodium orthovanadate], the “Hatching activity, %” value (Gp) is listed as ~60%.

For `N#C[S-].[Na+]` [sodium thiocyanate], the “Hatching activity, %” value (Gp) is listed as “about 30%”.

For sodium metavanadate, the “Hatching activity, %” value (Gp) is listed as ~70%.
